test system: TEX cells; assay: Differentiation and CD34 marker of TEX cells; format: cell-based; conditions: FIG. 4
Procedure: FIGS. 4A-F. COMPOUND 1 inhibits PRC1 in TEX cells. FIG. 4A. Inhibition of H2Aub in TEX cells. FIG. 4B. Differentiation of TEX cells upon treatment with COMPOUND 1. […] FIG. 4C. GSEA analysis of TEX cells showing revers of stem cell signature. FIG. 4D. […] FIG. 4E. Gene expression changes upon treatment with COMPOUND 1. FIG. 4F.
Experiments were conducted during development of embodiments herein to develop small molecule inhibitors of PRC1 by targeting the Ring1B-BMI1 E3 ligase. These compounds bind directly to Ring1B-Bmi1 with low-micromolar affinity and inhibit PRC1 in vitro and in cells. […] Experiments were conducted during development of embodiments herein to test COMPOUND 1 in leukemia stem cell models represented by TEX cells (Ref. 22; herein incorporated by reference in its entirety) and M9-ENL1 cells (Ref. 23; herein incorporated by reference in its entirety). […] In some embodiments, COMPOUND 1 and COMPOUND 1 analogs are find use as agents in targeting leukemia and other cancer stem cells.

SMILES	differentiation of TEX cells
CCc1c(-c2cccc3c2ccn3CCO)[nH]c(C(=O)O)c1-c1ccc(OC)cc1Cl [COMPOUND 103]	does not induce differentiation

molecular target: T1, RING1B-BMI1 (Homo sapiens, UniProt Q99496); assay: KD classes of Table A (direct binding to Ring1B-Bmi1); conditions: class given in Table A
T1 sequence (Q99496 1-336): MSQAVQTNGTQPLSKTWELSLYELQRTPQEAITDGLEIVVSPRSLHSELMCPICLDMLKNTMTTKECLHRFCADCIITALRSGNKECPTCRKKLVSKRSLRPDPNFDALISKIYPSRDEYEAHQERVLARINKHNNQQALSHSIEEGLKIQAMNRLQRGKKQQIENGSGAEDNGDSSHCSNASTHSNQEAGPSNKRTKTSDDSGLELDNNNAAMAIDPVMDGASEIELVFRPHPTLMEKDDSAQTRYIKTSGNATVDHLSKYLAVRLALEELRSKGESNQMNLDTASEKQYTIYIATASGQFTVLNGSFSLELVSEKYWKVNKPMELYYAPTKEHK
T1 sequence (P35226 1-326 partner): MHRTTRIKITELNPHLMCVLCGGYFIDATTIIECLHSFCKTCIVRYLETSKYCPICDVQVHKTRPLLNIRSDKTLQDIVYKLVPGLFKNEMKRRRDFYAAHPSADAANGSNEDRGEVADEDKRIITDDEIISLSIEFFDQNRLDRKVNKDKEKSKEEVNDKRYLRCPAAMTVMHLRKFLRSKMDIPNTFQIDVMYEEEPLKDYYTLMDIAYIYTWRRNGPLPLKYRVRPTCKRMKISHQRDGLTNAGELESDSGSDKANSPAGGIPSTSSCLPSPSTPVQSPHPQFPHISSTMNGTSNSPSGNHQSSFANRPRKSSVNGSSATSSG

SMILES	Kd [µM]
CCc1c(-c2cccc3c2ccn3CCO)[nH]c(C(=O)O)c1-c1ccc(OC)cc1Cl [COMPOUND 103]	> 100
COc1cccc(-c2ccc(C(=O)O)[nH]2)c1 [compound 141]	> 100
CC(C)c1c(-c2cc(F)cc3[nH]ccc23)[nH]c(C(=O)O)c1-c1cccc2[nH]c(C(=O)Nc3ccccc3)cc12 [compound 260]	< 20
Cc1ccccc1-c1ccc(C(=O)O)[nH]1 [compound 154]	> 100
O=C(O)c1ccc(-c2ccc(Cl)cc2)[nH]1 [compound 143]	> 100
CC(C)c1c(-c2cc(F)cc3[nH]ccc23)[nH]c(C(=O)O)c1-c1cc(C(=O)NCc2nccs2)cc2[nH]ccc12 [compound 200]	< 20
Cc1ccc2[nH]ccc2c1-c1c(C(=O)O)[nH]c(-c2cc(F)cc3[nH]ccc23)c1C(C)C [compound 241]	< 20
O=C(O)c1ccc(-c2ccc(-c3ccccc3)cc2)s1 [compound 159]	> 100
NC(=O)c1ccc(-c2cccc3[nH]ccc23)[nH]1 [compound 145]	> 100
COc1ccc(C)cc1-c1ccc(C(=O)O)[nH]1 [compound 137]	> 100
Cc1c(-c2cccc3[nH]ccc23)[nH]c(C(=O)O)c1-c1ccccc1Cl [compound 93]	50 to 100
COc1cc(-c2c(C(=O)O)[nH]c(-c3cc(F)cc4[nH]ccc34)c2CC(C)C)c2cc[nH]c2c1 [compound 174]	< 20
CCc1c(-c2cccc3[nH]ccc23)[nH]c(C(=O)O)c1-c1ccc(-c2ccccc2)cc1 [compound 106]	> 100
COc1cc(OC)cc(-c2ccc(C(=O)O)[nH]2)c1 [compound 133]	> 100
O=C(O)c1ccc(-c2cccc(OCc3ccccc3)c2)[nH]1 [compound 135]	> 100
CCc1c(C(=O)O)[nH]c(-c2cccc3c2ccn3C)c1CC [compound 111]	> 100
O=C(O)c1ccc(-c2ccc(C(F)(F)F)cc2)[nH]1 [compound 150]	> 100
COC(=O)c1ccc(-c2ccccc2)[nH]1 [compound 158]	> 100
Cn1ccc2c(-c3[nH]c(C(=O)O)c4c3CCCC4)cccc21 [compound 110]	> 100
CC(C)c1c(-c2cc(F)cc3[nH]ccc23)[nH]c(S(N)(=O)=O)c1-c1cccc2[nH]ccc12 [compound 217]	< 20
CC(C)c1c(-c2cc(F)cc3[nH]ccc23)[nH]c(C(=O)O)c1-c1cccc2[nH]c(CO)cc12 [compound 189]	< 20
CC(C)c1c(-c2cc(F)cc3[nH]cc(CCNC(=O)CCCCCNC(=O)c4ccc5c(c4)C(=O)OC54c5ccc(O)cc5Oc5cc(O)ccc54)c23)[nH]c(C(=O)O)c1-c1c(Cl)ccc2[nH]ccc12 [compound 70]	< 20
O=C(O)c1ccc(-c2cccc3c2ccn3CCO)[nH]1 [compound 146]	> 100
CC(C)c1c(-c2ccnc3[nH]ccc23)[nH]c(C(=O)O)c1-c1c(Cl)ccc2[nH]ccc12 [compound 75]	< 20
CC(C)c1c(-c2cc(F)cc3[nH]ccc23)[nH]c(C(=O)O)c1-c1ccnc2[nH]c(-c3ccccc3Cl)cc12 [compound 254]	< 20
CC(C)c1c(-c2cc(F)cc3[nH]ccc23)[nH]c(C(=O)O)c1-c1c(C(F)(F)F)cnc2[nH]ccc12 [compound 248]	< 20
CCc1c(-c2cccc3[nH]ccc23)[nH]c(C(=O)O)c1-c1ccc(OC)cc1 [compound 87]	20 to 50
CC(C)c1c(-c2cccc3[nH]ccc23)[nH]c(C(=O)O)c1-c1cc([N+](=O)[O-])c(O)cc1Cl [compound 4]	< 20
COc1cc(-c2[nH]c(C(=O)O)c(-c3c(Cl)ccc4[nH]ccc34)c2C(C)C)c2cc[nH]c2c1 [compound 11]	< 20
CCc1c(-c2ccc(C)c3[nH]ccc23)[nH]c(C(=O)O)c1-c1cccc2[nH]ccc12 [compound 22]	< 20

Results, then the compound that gave them:

Kd [µM]	SMILES
20 to 50	CCc1c(-c2cccc3[nH]ccc23)[nH]c(C(=O)O)c1-c1ccccc1C [compound 83]
< 20	C#CCCCCC(=O)NCCn1ccc2c(-c3c(C(=O)O)[nH]c(-c4cc(F)cc5[nH]ccc45)c3C(C)C)cccc21 [compound 66]
> 100	O=C(O)c1ccc(-c2ccccc2OCc2ccccc2)[nH]1 [compound 138]
< 20	CCc1c(-c2cccc3[nH]ccc23)[nH]c(C(=O)O)c1-c1cccc2[nH]ccc12 [compound 20]
< 20	CC(C)c1c(-c2cccc3[nH]c(C(=O)O)cc23)[nH]c(C(=O)O)c1-c1c(Cl)ccc2[nH]ccc12 [compound 49]
< 20	CC(C)c1c(-c2cc(F)cc3[nH]ccc23)[nH]c(C(=O)O)c1-c1cccc2[nH]c(CS(N)(=O)=O)cc12 [compound 229]
> 100	CCc1c(-c2ccccc2O)[nH]c(C(=O)O)c1-c1ccccc1Cl [compound 107]
< 20	CC(C)c1c(-c2cc(F)cc3[nH]ccc23)[nH]c(C(=O)O)c1-c1cc(C(=O)O)cc2[nH]ccc12 [compound 197]
< 20	COc1cc(-c2c(C(=O)O)[nH]c(-c3cc(F)cc4[nH]ccc34)c2C(C)C)c2ccn(CC(N)=O)c2c1 [compound 175]
< 20	COCc1ccc2[nH]ccc2c1-c1c(C(=O)O)[nH]c(-c2cc(F)cc3[nH]ccc23)c1C(C)C [compound 237]
< 20	CC(C)c1c(-c2cccc3[nH]ccc23)c(C(=O)O)n2c1-c1cc(F)cc3ccn(c13)[C@H](C)C2 [compound 272]
> 100	CCOc1ccccc1-c1ccc(C(=O)O)[nH]1 [compound 140]
< 20	Cc1c[nH]c2nccc(-c3c(C(=O)O)[nH]c(-c4cc(F)cc5[nH]ccc45)c3C(C)C)c12 [compound 208]
> 100	CC(C)CCOc1cccc(-c2ccc(C(=O)O)[nH]2)c1 [compound 132]

— patent US12466813B2, “PRC1 inhibitors and methods of treatment therewith” (The Regents of the University of Michigan, priority 2018, dated 2025)
